The record followed here is patent publication US9266827B2, “Bicyclic sulfone compounds for inhibition of RORgamma activity and the treatment of disease” (Merck Sharp & Dohme Corp., priority 2012, dated 2016).

Each structure is given as a SMILES string.

In general, EC50 refers to the midpoint of the concentration-response curve.

The assay concerns the target T1, RORγ-LBD (Homo sapiens, UniProt P51449).
T1 construct: made in house; host or cells: SF9 insect cells, baculovirus; crude lysate used
T1 sequence (P51449 269-508 limits assumed): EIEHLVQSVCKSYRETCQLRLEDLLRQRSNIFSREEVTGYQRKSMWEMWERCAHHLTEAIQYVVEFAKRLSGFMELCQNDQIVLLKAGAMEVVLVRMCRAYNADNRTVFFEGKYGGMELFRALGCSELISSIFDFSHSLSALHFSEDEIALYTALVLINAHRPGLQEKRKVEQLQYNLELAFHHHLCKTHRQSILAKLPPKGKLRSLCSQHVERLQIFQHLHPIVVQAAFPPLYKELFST
Nature of the assay: RORγ-Ligand Binding Domain (LBD) TR-FRET Assay. Type of assay: biochemical. The note with it: recombinant HIS-tagged RORγ-LBD lysate, biotinylated SRC1-2 LXXLL peptide. The protocol:
Recombinant, HIS-tagged RORγ-LBD was expressed in SF9 cells using a baculovirus expression system. Cells were lysed and the lysate was used as a source for RORγ-LBD for the assay. A 1:80 dilution of RORγ-LBD lysate in assay buffer (25 mM HEPES pH 7.0, 100 mM NaCl, 0.01% Tween, 0.1% BSA) was prepared and 5 μL was added to each well (RORγ-LBD final concentration ˜3 nM). Control wells received lysate from SF9 cells not expressing RORγ-LBD.
Compounds to be tested were diluted to 100× final test concentration in DMSO and further diluted to 4× final test concentration using assay buffer to provide the test compound mixture. An aliquot (5 μL) of the test compound mixture was added to each well.
A 4× stock of biotinylated-LXXLL peptide from SRC1-2 (Biotin-[…]) was prepared in assay buffer and a 5 μL aliquot added to each well (450 nM final concentration). A 4× solution of europium tagged anti-HIS antibody (2 nM final concentration) and APC conjugated streptavidin (60 nM final concentration) were prepared and a 5 μL aliquot added to each well.
The final assay mixture was incubated for 4 hours to overnight, and the fluorescence signal was measured on an Envision plate reader: (Excitation filter=340 nm; APC emission=665 nm; Europium emission=615 nm; dichroic mirror=D400/D630; delay time=100 μs, integration time=200 μs).
EC50 values for test compounds were calculated from the quotient of the fluorescence signal at 665 nm divided by the fluorescence signal at 615 nm using GraphPad Prism software
For the compound `O=C(Nc1ccc2c(c1)C(S(=O)(=O)c1ccc(C(F)(F)F)cc1)CCC2)c1c(F)cccc1Cl` (stereo not shown) [Compound 1, 2-Chloro-6-fluoro-N-[8-(4-trifluoromethylbenzenesulfonyl)-5,6,7,8-tetrahydronaphthalen-2-yl]benzamide], the EC50 is under 150 nM.
As for `O=C(Nc1ccc2c(c1)C(S(=O)(=O)c1ccc(C(F)(F)F)cc1)CCC2)c1c(F)cccc1C(F)(F)F` (stereo not shown) [IV-2], the figure is under 150 nM; as for `O=C(Nc1ccc2c(c1)C(S(=O)(=O)c1ccc(C(F)(F)F)cc1)CCC2)c1c(F)cccc1F` (stereo not shown) [IV-4], under 150 nM.
As for `O=C(Nc1ccc2c(c1)C(S(=O)(=O)c1ccc(C(F)(F)F)cc1)CCC2)c1c(Cl)cccc1C(F)(F)F` (stereo not shown) [IV-1], the figure is under 150 nM.
